Values of other authors in patent EP2934488B1, “A PHARMACEUTICAL COMPOSITION CONTAINING CANDESARTAN CILEXETIL AND AMLODIPINE” (Adamed Pharma S.A., priority 2012, dated 2014).

Legend:
[1] = not given; remark: listed apart in the source

| solubility in water | absolute bioavailability ([1]; in vivo) | candesartan physiologically available ([1]; candesartan included in commercial formulations, estimated) | Compound |
| --- | --- | --- | --- |
| slightly soluble in water | 64-90% |  | CCOC(=O)C1=C(COCCN)NC(C)=C(C(=O)OC)C1c1ccccc1Cl (racemic) [Amlodipine benzenesulfonate, 3-ethyl 5-methyl (4RS)-2-[(2-amino-ethoxy)-methyl]-6-methyl-1,4-dihydropyridine-3,5-dicarboxylate] |
|  |  | 15-40% | CCOc1nc2cccc(C(=O)O)c2n1Cc1ccc(-c2ccccc2-c2nnn[nH]2)cc1 [candesartan] |
